This is an account of results in patent US10584115B2, “Substituted pyridine and pyrazine BMI-1 inhibitors” (PTC Therapeutics, Inc., priority 2013, dated 2020).

In this test the test system is Bmi-1 protein. Kind of test: Sandwich ELISA Assay (Bmi-1 protein level in HT-1080 cells after compound treatment). To be noted: Table 1, Bmi-1 sandwich ELISA, read-out: ELISA EC50 value for Bmi-1 protein. It counts as cell-based. The method in brief:
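HT-1080 cells exposed to compounds for 40–48 h at 37 °C (0.5% DMSO final), then lysed. Bmi-1 in lysates measured by sandwich ELISA (mouse monoclonal capture, rabbit anti-Bmi-1 detection, HRP anti-rabbit, TMB), read at OD450 with OD570 reference against a recombinant Bmi-1 standard curve (0–8000 pg/mL).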
For the compound `N#Cc1cc(Nc2ccc(OC(F)F)cc2)nc(-c2c(C(F)(F)F)nc3ccccn23)c1` [Cpd 217, 2-{[4-(difluoromethoxy)phenyl]amino}-6-[2-(trifluoromethyl)imidazo[1,2-a]pyridin-3-yl]pyridine-4-carbonitrile], the EC50 fell in the range of 1 to 10 nM.

Take `Fc1cnc2nc(C3CC3)n(-c3cncc(Nc4ccc(C(F)(F)F)nc4)n3)c2c1` [compound 458, 6-(2-cyclopropyl-6-fluoro-1H-imidazo[4,5-b]pyridin-1-yl)-N-[6-(trifluoromethyl)pyridin-3-yl]pyrazin-2-amine]: the EC50 was in the range of 100 to 3000 nM.

Regarding `Oc1ccc(Nc2cncc(-c3c(C(F)(F)F)nc4ccccn34)n2)cc1` [compound 207, 4-({6-[2-(trifluoromethyl)imidazo[1,2-a]pyridin-3-yl]pyrazin-2-yl}amino)phenol], the half-maximal effective concentration (EC50) is 100 to 3000 nM.

In the case of `Cc1nc2cc(OC(F)(F)F)ccc2n1-c1cncc(Nc2ccc(C(F)(F)F)cc2)n1` [compound 356, 6-[2-methyl-5-(trifluoromethoxy)-1H-benzimidazol-1-yl]-N-[4-(trifluoromethyl)phenyl]pyrazin-2-amine], the concentration for a half-maximal effect (EC50) is 100 to 3000 nM.

Regarding `Cc1nc2c(F)cccc2n1-c1cncc(Nc2ccc(C(F)(F)F)cc2)n1` [compound 339, 6-(4-fluoro-2-methyl-1H-benzimidazol-1-yl)-N-[4-(trifluoromethyl)phenyl]pyrazin-2-amine], the EC50 was in the range of 10 to 100 nM.

For `CCc1nc2ncccc2n1-c1cccc(Nc2ccc(C(F)(F)F)cc2)n1` [compound 140, 6-(2-ethyl-1H-imidazo[4,5-b]pyridin-1-yl)-N-[4-(trifluoromethyl)phenyl]pyridin-2-amine], the concentration giving a half-maximal response (EC50) was 10 to 100 nM.

For `CCOc1ccc(Nc2cncc(-n3c(C)nc4ccccc43)n2)cc1` [compound 664, N-(4-ethoxyphenyl)-6-(2-methyl-1H-benzimidazol-1-yl)pyrazin-2-amine], the EC50 is 100 to 3000 nM.

On to `Cc1ccc(Nc2cncc(-c3c(C(F)(F)F)nc4cnccn34)n2)cc1` [compound 168, N-(4-methylphenyl)-6-[2-(trifluoromethyl)imidazo[1,2-a]pyrazin-3-yl]pyrazin-2-amine], for which the concentration for a half-maximal effect (EC50) is 10 to 100 nM.

As to `CSc1nc2ccccc2n1-c1cncc(Nc2ccc(OC(F)F)cc2)n1` [compound 181, N-[4-(difluoromethoxy)phenyl]-6-[2-(methylsulfanyl)-1H-benzimidazol-1-yl]pyrazin-2-amine], the EC50 was in the range of 10 to 100 nM.

On to `Fc1ccc(Nc2cncc(-c3c(C(F)(F)F)nc4ccccn34)n2)cc1F` [Cpd 26, N-(3,4-difluorophenyl)-6-[2-(trifluoromethyl)imidazo[1,2-a]pyridin-3-yl]pyrazin-2-amine], for which the EC50 lay in the range of 100 to 3000 nM.

Turning to `N#Cc1cc(Nc2ccc(Cl)nc2)nc(-c2c(CO)nc3ccc(F)cn23)c1` [compound 446, 2-[(6-chloropyridin-3-yl)amino]-6-[6-fluoro-2-(hydroxymethyl)imidazo[1,2-a]pyridin-3-yl]pyridine-4-carbonitrile], the EC50 fell in the range of 100 to 3000 nM.

On to `Cc1ccc(C)n1-c1cc(Nc2ccc(Cl)cc2)nc(-n2c(C)nc3ccccc32)c1` [compound 618, N-(4-chlorophenyl)-4-(2,5-dimethyl-1H-pyrrol-1-yl)-6-(2-methyl-1H-benzimidazol-1-yl)pyridin-2-amine], for which the EC50 fell in the range of 100 to 3000 nM.

Take `Cc1nc2cc(F)c(F)cc2n1-c1cncc(Nc2ccc(NCCO)nc2)n1` [compound 425, 2-[(5-{[6-(5,6-difluoro-2-methyl-1H-benzimidazol-1-yl)pyrazin-2-yl]amino}pyridin-2-yl)amino]ethanol]: the EC50 fell in the range of 10 to 100 nM.

With `CCc1nn2ccccc2c1-c1cc(C#N)cc(Nc2ccc(OC(F)(F)F)cc2)n1` [compound 529, 2-(2-ethylpyrazolo[1,5-a]pyridin-3-yl)-6-{[4-(trifluoromethoxy)phenyl]amino}pyridine-4-carbonitrile], the EC50 fell in the range of 100 to 3000 nM.

As to `CCc1nn2ccccc2c1-c1cncc(Nc2cccc(Cl)c2)n1` [compound 643, N-(3-chlorophenyl)-6-(2-ethylpyrazolo[1,5-a]pyridin-3-yl)pyrazin-2-amine], the EC50 fell in the range of 100 to 3000 nM.

With `Fc1ccc2nc(C(F)(F)F)c(-c3cncc(Nc4ccc(OC(F)F)cc4)n3)n2c1` [Cpd 56, N-[4-(difluoromethoxy)phenyl]-6-[6-fluoro-2-(trifluoromethyl)imidazo[1,2-a]pyridin-3-yl]pyrazin-2-amine], the EC50 is 1 to 10 nM.

For `Cc1nn2ccccc2c1-c1cncc(Nc2ccccc2)n1` [compound 564, 6-(2-methylpyrazolo[1,5-a]pyridin-3-yl)-N-phenylpyrazin-2-amine], the EC50 was 100 to 3000 nM.

As for `Nc1nc2ccccc2n1-c1cncc(Nc2ccc(C(F)(F)F)cc2)n1` [compound 76, 1-(6-{[4-(trifluoromethyl)phenyl]amino}pyrazin-2-yl)-1H-benzimidazol-2-amine], the EC50 was 100 to 3000 nM.

`Fc1cnc2nc(C3CC3)n(-c3cncc(Nc4ccc(OC(F)F)c(F)c4)n3)c2c1` [compound 459, 6-(2-cyclopropyl-6-fluoro-1H-imidazo[4,5-b]pyridin-1-yl)-N-[4-(difluoromethoxy)-3-fluorophenyl]pyrazin-2-amine]: the EC50 lay within 10 to 100 nM.

As to `COc1ccc2nc(C)c(-c3cc(C#N)cc(Nc4ccc(Cl)cc4)n3)n2c1` [compound 676, 2-[(4-chlorophenyl)amino]-6-(6-methoxy-2-methylimidazo[1,2-a]pyridin-3-yl)pyridine-4-carbonitrile], the EC50 fell in the range of 10 to 100 nM.

With `OCCNc1cc(Nc2ccc(C(F)(F)F)cc2)nc(-c2c(C(F)(F)F)nc3ccc(F)cn23)c1` [compound 291, 2-[(2-[6-fluoro-2-(trifluoromethyl)imidazo[1,2-a]pyridin-3-yl]-6-{[4-(trifluoromethyl)phenyl]amino}pyridin-4-yl)amino]ethanol], the concentration giving a half-maximal response (EC50) is 10 to 100 nM.

Regarding `Cc1nc2ccc(OC(F)(F)F)cc2n1-c1cncc(Nc2ccc(C(F)(F)F)cc2)n1` [compound 357, 6-[2-methyl-6-(trifluoromethoxy)-1H-benzimidazol-1-yl]-N-[4-(trifluoromethyl)phenyl]pyrazin-2-amine], the EC50 fell in the range of 100 to 3000 nM.

Turning to `Cc1nc2cc(F)c(F)cc2n1-c1cncc(Nc2ccc(OC(F)F)c(F)c2)n1` [compound 319, N-[4-(difluoromethoxy)-3-fluorophenyl]-6-(5,6-difluoro-2-methyl-1H-benzimidazol-1-yl)pyrazin-2-amine], the EC50 is 10 to 100 nM.

As for `Cc1nc2ccc(O)cn2c1-c1cc(C#N)cc(Nc2ccc(C(F)(F)F)cc2)n1` [compound 381, 2-(6-hydroxy-2-methylimidazo[1,2-a]pyridin-3-yl)-6-{[4-(trifluoromethyl)phenyl]amino}pyridine-4-carbonitrile], the EC50 is 10 to 100 nM.

On to `FC(F)(F)c1ccc(Nc2cncc(-c3c(C(F)(F)F)nc4sccn34)n2)cc1` [compound 118, 6-[6-(trifluoromethyl)imidazo[2,1-b][1,3]thiazol-5-yl]-N-[4-(trifluoromethyl)phenyl]pyrazin-2-amine], for which the EC50 is 1 to 10 nM.

Regarding `Cc1nc2cc(F)ccc2n1-c1cncc(Nc2ccc(C(F)(F)F)nc2)n1` [compound 431, 6-(5-fluoro-2-methyl-1H-benzimidazol-1-yl)-N-[6-(trifluoromethyl)pyridin-3-yl]pyrazin-2-amine], the EC50 was in the range of 10 to 100 nM.

As to `Cc1nc2ccccc2n1-c1cncc(Nc2nc3ccc(C(F)(F)F)cc3s2)n1` [compound 440, N-[6-(2-methyl-1H-benzimidazol-1-yl)pyrazin-2-yl]-6-(trifluoromethyl)-1,3-benzothiazol-2-amine], the EC50 fell in the range of 100 to 3000 nM.

In the case of `Fc1ccc2nc(C(F)(F)F)c(-c3cncc(Nc4ccc(OC(F)(F)F)cc4)n3)n2c1` [Cpd 55, 6-[6-fluoro-2-(trifluoromethyl)imidazo[1,2-a]pyridin-3-yl]-N-[4-(trifluoromethoxy)phenyl]pyrazin-2-amine], the EC50 lay in the range of 10 to 100 nM.

On to `Oc1ccc2nc(C(F)(F)F)c(-c3cccc(Nc4ccc(OC(F)(F)F)cc4)n3)n2c1` [compound 110, 3-(6-{[4-(trifluoromethoxy)phenyl]amino}pyridin-2-yl)-2-(trifluoromethyl)imidazo[1,2-a]pyridin-6-ol], for which the EC50 is 100 to 3000 nM.

For `FC(F)(F)c1ccc(Nc2cncc(-c3cccc4cc(C(F)(F)F)nn34)n2)cc1` [compound 15, N-[4-(trifluoromethyl)phenyl]-6-[2-(trifluoromethyl)pyrazolo[1,5-a]pyridin-7-yl]pyrazin-2-amine], the EC50 was in the range of 10 to 100 nM.

For the compound `COCCNc1cc(Nc2ccc(OC(F)F)cc2)nc(-c2c(C(F)(F)F)nc3ccccn23)c1` [compound 172, N^2-[4-(difluoromethoxy)phenyl]-N^4-(2-methoxyethyl)-6-[2-(trifluoromethyl)imidazo[1,2-a]pyridin-3-yl]pyridine-2,4-diamine], the EC50 lay within 10 to 100 nM.

Consider `FC(F)(F)c1ccc(Nc2cccc(-c3c(C(F)(F)F)nc4ccccn34)n2)cn1` [Cpd 71, 6-[2-(trifluoromethyl)imidazo[1,2-a]pyridin-3-yl]-N-[6-(trifluoromethyl)pyridin-3-yl]pyridin-2-amine], for which the EC50 is 1 to 10 nM.

On to `Cc1nc2ccccc2n1-c1cncc(Nc2ccc(C(C)N)cc2)n1` (centres unmarked) [compound 256, N-[4-(1-aminoethyl)phenyl]-6-(2-methyl-1H-benzimidazol-1-yl)pyrazin-2-amine], for which the EC50 is 100 to 3000 nM.

Take `Cc1nc2ccccc2n1-c1cncc(Nc2ccc(C(F)(F)F)c(CN)c2)n1` [compound 524, N-[3-(aminomethyl)-4-(trifluoromethyl)phenyl]-6-(2-methyl-1H-benzimidazol-1-yl)pyrazin-2-amine]: the EC50 is 100 to 3000 nM.

Take `OCc1nc2ccccn2c1-c1cncc(Nc2ccc(OC(F)(F)F)cc2)n1` [compound 213, [3-(6-{[4-(trifluoromethoxy)phenyl]amino}pyrazin-2-yl)imidazo[1,2-a]pyridin-2-yl]methanol]: the EC50 lay in the range of 100 to 3000 nM.
